Experiments:
Arabidopsis thaliana [1] = assay: Root growth-promoting activity test (Example 9); assay type: in vivo; details: main root length vs control section, 22° C., 10 days
Description: (§1) Enshi standard medium having the following composition (see Table 10) was prepared. To cluster tubes was dispensed each 4 μl of a solution of a chemical substance in DMSO to a final concentration of 0.001 ppm to 10 ppm, and then, was dispensed each 600 μl of the sterilized Enshi standard medium. Then the resulting solution was well mixed. In each of the cluster tubes, 10-20 seeds of Arabidopsis thaliana were sown, and cultured at 22° C. for 10 days in the light. Then, the length of main roots (average main roots) generated from the seeds of Arabidopsis thaliana was measured. An average of eight repeats was determined, and a root growth rate was determined according to the following equation.
(§2) Root growth rate (%)=(Average main root length in chemical substance-treated section)/(Average main root length in control section)×100

cytokinin receptor CRE1 = molecular target: T1, cytokinin receptor CRE1 (Arabidopsis thaliana, UniProt Q9C5U0, S567G/T1018A); assay: Inhibition of intracellular signaling from plant-derived cytokinin receptor, growth of transformed yeast cell TM182-CRE1; assay type: cell-based; details: for Relative growth rate (%) in test section of test substance to control section, Transformed cell TM182-CRE1 / Activity (%) of test substance for inhibiting intracellular signaling from plant-derived cytokinin receptor of cell: trans-zeatin 0.6 ppm, chemical substance 2 ppm; for Relative growth rate (%) in test section of test substance to control section, Transformed cell TM182-CRE1: 30° C., 24 hours, turbidity OD 600; for Activity (%) of test substance for inhibiting intracellular signaling from plant-derived cytokinin receptor of cell: = 100 − relative growth rate of TM182-CRE1
T1 construct: expressed in transfected cells; host or cells: Saccharomyces cerevisiae TM182 (sln1Δ) transformed with p415CYC-CRE1
Description: (§3) The transformed cell TM182-CRE1 and the transformed cell TM182-p415CYC1 obtained in Example 6 were each inoculated in 10 ml of a DOLU+Gal medium, and preincubated at 30° C. for 18 hours to obtain a preincubation liquid for each of the transformed cells. The preincubation liquid was diluted with a DOLU+Glu medium for the transformed cell TM182-CRE1 or with a DOLU+Gal medium for the transformed cell TM182-p415CYC1 until OD600=0.1 was reached, to obtain a preincubation dilution for each of the transformed cells.
(§4) To each well of a 96-well plate was added 1 μl of a 200 ppm solution of a test substance in dimethyl sulfoxide (DMSO) to prepare an Assay plate. At the same time, as controls, only 1 μl of DMSO was added to a part of wells. An assay plate for the transformed cell TM182-CRE1 and an assay plate for the transformed cell TM182-p415CYC1 were prepared.
(§5) A 10,000 ppm solution of trans-zeatin (cytokinin) in DMSO was 50-fold diluted with a DOLU+Gul medium to 200 ppm. The 200 ppm trans-zeatin solution was added in an amount of 3/1,000 volume to each of the above-described preincubation dilution to prepare each preincubation dilution containing trans-zeatin at 0.6 ppm. The 0.6 ppm preincubation dilution was added in an amount of 100 μl to each wells of the assay plate for each transformed cell. The plates were incubated at 30° C. for 24 hours. Then, turbidity (OD 600) of each well was measured by using a plate reader. The activity of the test substance for inhibiting intracellular signaling from a plant-derived cytokinin receptor of a cell was tested by comparing the measured turbidity with the turbidity of the control well.
(§6) (Relative growth rate in test section to control section) [%]=[(Turbidity in test section)−(Turbidity in blank)]/[(Turbidity in control section)−(Turbidity in blank)]×100 (Activity of inhibiting intracellular signaling from plant-derived cytokinin receptor of cell) [%]=100−(Relative growth rate in test section to control section)
(§7) In all cases, the existing concentration of trans-zeatin was adjusted to 0.6 ppm and the existing concentration of a chemical substance was adjusted to 2 ppm.
(§8) In all cases, the existing concentration of trans-zeatin was adjusted to 0.6 ppm and the existing concentration of a chemical substance was adjusted to 2 […].

[2] = test system: transformed cell TM182-p415CYC1; assay: Control growth test with transformed yeast cell TM182-p415CYC1 (toxicity to yeast); assay type: cell-based; details: trans-zeatin 0.6 ppm; chemical substance 2 ppm; 30° C., 24 hours; turbidity OD 600
Description: as §3, §4, §5, §6, §7, §8

Arabidopsis thaliana [3] = assay: Root growth-promoting activity test (Example 22); assay type: in vivo; details: main root length vs control section, 22° C., 10 days
Description: as §1, with “18)” for “10)”
as §2
Enshi standard medium determined having the following composition (Table 18) was prepared. A DMSO solution of a chemical substance was dispensed by 4 μl to cluster tubes to a final concentration of 0.001 ppm to 10 ppm and the sterilized Enshi standard medium was dispensed by 600 μl and then the resulting solution was well mixed. 10-20 seeds of A. thaliana per cluster tube were sown in the cluster tubes. After culture at 22° C. for 10 days in bright light, the length of main roots (average main roots) took from seeds of A. thaliana was measured. An average of eight repeats was determined and the root growth rate was determined.
Root growth rate (%)=(Average main root length of chemical substance-treated section)/(Average main root length of control section)×100

[4] = Arabidopsis thaliana, 240 h, test final concentration 5 ppm (concentration with highest root growth rate)
[5] = test final concentration 0.625 ppm (concentration with highest root growth rate)
[6] = test final concentration 0.625 ppm (highest root growth rate)
[7] = test final concentration 5 ppm (concentration with highest root growth rate)
[8] = test final concentration 5 ppm (highest root growth rate)
[9] = test final concentration 2.5 ppm (concentration with highest root growth rate)
[10] = test final concentration 2.5 ppm (highest root growth rate)

T1 sequence (Q9C5U0 24-1080 S567G/T1018A): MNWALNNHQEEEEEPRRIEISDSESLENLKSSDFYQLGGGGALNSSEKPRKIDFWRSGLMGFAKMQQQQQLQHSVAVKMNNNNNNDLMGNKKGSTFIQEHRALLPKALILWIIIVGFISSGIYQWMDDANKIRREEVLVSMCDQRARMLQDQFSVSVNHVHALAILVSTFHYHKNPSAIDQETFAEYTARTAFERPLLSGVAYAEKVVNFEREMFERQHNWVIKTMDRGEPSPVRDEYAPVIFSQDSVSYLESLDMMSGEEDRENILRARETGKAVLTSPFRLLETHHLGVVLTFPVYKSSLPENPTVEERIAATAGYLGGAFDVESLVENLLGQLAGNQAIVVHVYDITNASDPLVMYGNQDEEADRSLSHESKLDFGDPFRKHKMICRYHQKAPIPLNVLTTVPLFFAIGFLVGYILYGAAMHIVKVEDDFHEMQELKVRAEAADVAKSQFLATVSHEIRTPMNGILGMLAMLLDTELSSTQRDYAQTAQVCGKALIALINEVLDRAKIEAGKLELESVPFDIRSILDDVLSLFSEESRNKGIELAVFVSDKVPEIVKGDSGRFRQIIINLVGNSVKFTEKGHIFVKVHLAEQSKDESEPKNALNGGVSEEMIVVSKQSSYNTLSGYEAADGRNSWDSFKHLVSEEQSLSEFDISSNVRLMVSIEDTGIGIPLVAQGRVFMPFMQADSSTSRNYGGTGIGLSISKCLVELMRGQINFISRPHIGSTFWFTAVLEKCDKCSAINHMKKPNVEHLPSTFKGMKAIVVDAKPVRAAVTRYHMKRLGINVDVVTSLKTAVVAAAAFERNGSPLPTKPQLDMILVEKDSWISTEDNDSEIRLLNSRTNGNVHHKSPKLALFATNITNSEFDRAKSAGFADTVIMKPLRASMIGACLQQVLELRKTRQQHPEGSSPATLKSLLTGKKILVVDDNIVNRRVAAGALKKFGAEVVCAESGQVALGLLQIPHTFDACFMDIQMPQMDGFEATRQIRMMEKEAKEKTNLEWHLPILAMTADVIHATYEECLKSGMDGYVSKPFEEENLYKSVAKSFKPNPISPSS

Structure (SMILES) | Relative growth rate (%) in test section of test substance to control section, Transformed cell TM182-CRE1 (cytokinin receptor CRE1) [%] | melting point [°C] | Relative growth rate (%) in test section of test substance to control section, Transformed cell TM182-p415CYC1 [2] [%] | Activity (%) of test substance for inhibiting intracellular signaling from plant-derived cytokinin receptor of cell (cytokinin receptor CRE1) [%] | also measured
Clc1ccc2nc(Cl)nc(-c3ccccc3)c2c1 [Ia1-3, 2,6-dichloro-4-phenylquinazoline] | 5.5 | 166.2 | 113.9 |  | activity at 5 ppm (Arabidopsis thaliana [1]; [4]): 138%; inhibition at 2 ppm (cytokinin receptor CRE1; read-out: Activity (%) of test substance for inhibiting intracellular signaling from plant-derived cytokinin receptor of cell): 94.5%
Clc1nc(-c2ccccc2)c2cccc(Cl)c2n1 [Ia1-11, 2,8-dichloro-4-phenylquinazoline] |  | 154.4 |  |  | 
Clc1cc(Cl)c2nc(Cl)nc(-c3ccccc3)c2c1 [Ia1-12, 2,6,8-trichloro-4-phenylquinazoline] |  | 160.3 |  |  | 
SCCNc1nc(-c2ccccc2)c2cc(Cl)ccc2n1 [Ic3-13, 6-chloro-2-(2-mercaptoethylamino)-4-phenylquinazoline] |  | 165.9 |  |  | activity at 10 ppm (Arabidopsis thaliana [1]; Arabidopsis thaliana, 240 h, test final concentration 10 ppm (concentration with highest root growth rate)): 140%
CC(=O)SCCNc1nc(-c2ccccc2)c2cc(Cl)ccc2n1 [Ic3-14, 2-(2-acetylthioethylamino)-6-chloro-4-phenylquinazoline] |  | 128.9 |  |  | activity at 2.5 ppm (Arabidopsis thaliana [1]; Arabidopsis thaliana, 240 h, test final concentration 2.5 ppm (concentration with highest root growth rate)): 126%
Clc1ccc2nc(NCCSSCCNc3nc(-c4ccccc4)c4cc(Cl)ccc4n3)nc(-c3ccccc3)c2c1 [Ic3-15, bis[2-(6-chloro-4-phenyl-2-quinazolinyl)aminoethyl]disulfide] |  | 159.2 |  |  | activity at 5 ppm (Arabidopsis thaliana [1]; [4]): 131%
CC(O)CNc1nc(-c2ccccc2)c2cc(Cl)ccc2n1 (centres unmarked) [Ic3-39] | −1.3 |  | 108.1 | 101.3 | Root growth-promoting activity (root growth rate) (Arabidopsis thaliana [1]; test final concentration 10 ppm (concentration with highest root growth rate)): 169.0%; Root growth-promoting activity (root growth rate) (Arabidopsis thaliana [3]; test final concentration 10 ppm (highest root growth rate)): 169.0%
OCCOCCNc1nc(-c2ccccc2)c2cc(Cl)ccc2n1 [Ic3-40] | 0.7 |  | 123.4 | 99.3 | Root growth-promoting activity (root growth rate) (Arabidopsis thaliana [1]; [5]): 125.8%; Root growth-promoting activity (root growth rate) (Arabidopsis thaliana [3]; [6]): 125.8%
OCC(O)CNc1nc(-c2ccccc2)c2cc(Cl)ccc2n1 (centres unmarked) [Ic3-41] | 8.8 |  | 123.3 | 91.2 | Root growth-promoting activity (root growth rate) (Arabidopsis thaliana [1]; [7]): 134.5%; Root growth-promoting activity (root growth rate) (Arabidopsis thaliana [3]; [8]): 134.5%
COC(=O)CNc1nc(-c2ccccc2)c2cc(Cl)ccc2n1 [Ic3-42] | −0.7 |  | 111.5 | 100.7 | Root growth-promoting activity (root growth rate) (Arabidopsis thaliana [1]; [5]): 128.6%; Root growth-promoting activity (root growth rate) (Arabidopsis thaliana [3]; [6]): 128.6%
COC(=O)CCNc1nc(-c2ccccc2)c2cc(Cl)ccc2n1 [Ic3-43] | 0.8 |  | 122.0 | 99.2 | Root growth-promoting activity (root growth rate) (Arabidopsis thaliana [1]; [9]): 137.9%; Root growth-promoting activity (root growth rate) (Arabidopsis thaliana [3]; [10]): 137.9%
CC(CO)Nc1nc(-c2ccccc2)c2cc(Cl)ccc2n1 (centres unmarked) [Ic3-44] | 7.0 |  | 101.4 | 93.0 | Root growth-promoting activity (root growth rate) (Arabidopsis thaliana [1]; test final concentration 1.25 ppm (concentration with highest root growth rate)): 126.5%; Root growth-promoting activity (root growth rate) (Arabidopsis thaliana [3]; test final concentration 1.25 ppm (highest root growth rate)): 126.5%
CCOCCCNc1nc(-c2ccccc2)c2cc(Cl)ccc2n1 [Ic3-46] | 1.3 |  | 92.2 | 98.7 | Root growth-promoting activity (root growth rate) (Arabidopsis thaliana [1]; [9]): 121.6%; Root growth-promoting activity (root growth rate) (Arabidopsis thaliana [3]; [10]): 121.6%
OCCCNc1nc(-c2ccccc2)c2cccc(Cl)c2n1 [Ic11-1] | 2.2 |  | 114.5 | 97.8 | Root growth-promoting activity (root growth rate) (Arabidopsis thaliana [1]; [7]): 143.9%; Root growth-promoting activity (root growth rate) (Arabidopsis thaliana [3]; [8]): 143.9%
OCCCNc1nc(-c2ccccc2)c2cc(Cl)cc(Cl)c2n1 [Ic12-1] | 2.8 |  | 106.3 | 97.2 | Root growth-promoting activity (root growth rate) (Arabidopsis thaliana [1]; [9]): 184.6%; Root growth-promoting activity (root growth rate) (Arabidopsis thaliana [3]; [10]): 184.6%
Nc1nc(-c2ccccc2)c2cc(Cl)cc(Cl)c2n1 [Ic12-4, 2-amino-6,8-dichloro-4-phenylquinazoline] |  | 212.7 |  |  | 

Source: patent publication US8722580B2, “Agent for inhibiting cytokinin signaling” (Sumitomo Chemical Company, Limited, priority 2006, dated 2014)
